Data: patent publication US11078213B2, “Thienopyrimidine compound, preparation method thereof, pharmaceutical composition and application thereof” (HONGYUN BIOTECH CO., LTD., priority 2016, dated 2021)

Target: T1, EML4-ALK-BaF3 (Homo sapiens, UniProt Q9UM73)
T1 construct: EML4 (echinoderm microtubule associated protein like 4, Q9HC35) fusion partner; expressed in transfected cells; host or cells: BaF3; the other entry of the earlier key: EML4 (Q9HC35, Echinoderm microtubule-associated protein-like 4)
Assay: Growth inhibition of BaF3 cells stably transfected with kinase EML4-ALK (MTS)
Assay type: cell-based
Details: compound concentration 3.3 μM, read-out: cell growth inhibition rate, EML4-ALK
Description: (§1) The specific test method is given as follows:
(§2) 2) Reagent: MTS reaction solution (containing 2 mg/mL of MTS [3-(4,5-dimethylthiazol-2-yl)-5-(3-carboxymethoxyphenyl)-2-(4-sulfophenyl)-2H-tetra zolium, inner Salt]; 100 µg/mL PES ([…])).

T1 sequence (Q9UM73 1058-1620 limits assumed): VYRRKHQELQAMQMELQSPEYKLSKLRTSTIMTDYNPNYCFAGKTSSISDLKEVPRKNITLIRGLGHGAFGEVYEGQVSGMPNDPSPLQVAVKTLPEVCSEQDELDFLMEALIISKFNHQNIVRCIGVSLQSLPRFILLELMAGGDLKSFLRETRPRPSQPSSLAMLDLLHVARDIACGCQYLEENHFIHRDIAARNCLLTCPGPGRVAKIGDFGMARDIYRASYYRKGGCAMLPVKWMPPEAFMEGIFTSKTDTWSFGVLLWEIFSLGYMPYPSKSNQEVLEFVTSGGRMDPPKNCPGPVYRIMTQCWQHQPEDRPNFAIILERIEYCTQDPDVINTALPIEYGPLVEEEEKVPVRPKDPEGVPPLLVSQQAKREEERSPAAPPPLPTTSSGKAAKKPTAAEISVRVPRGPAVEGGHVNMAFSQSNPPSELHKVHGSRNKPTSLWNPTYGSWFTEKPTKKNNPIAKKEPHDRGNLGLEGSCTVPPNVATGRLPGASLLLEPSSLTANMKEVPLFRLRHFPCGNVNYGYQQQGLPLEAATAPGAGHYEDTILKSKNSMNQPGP

Row | inhibition at 3.3 µM [%] | SMILES
1 | 98.1 | COc1cc(N2CCC(N(C)C)CC2)ccc1Nc1nc(Nc2ccccc2S(=O)(=O)C(C)C)c2sccc2n1 [IB-31]
2 | 96.8 | COc1cc(F)c(NC(=O)CN(C)C)cc1Nc1nc(Nc2ccccc2S(=O)(=O)C(C)C)c2sccc2n1 [IB-35]
3 | 95 | COc1ccc(NC(=O)CN(C)C)cc1Nc1nc(Nc2ccccc2S(=O)(=O)C(C)C)c2sccc2n1 [IB-32]
4 | 97.1 | COc1cc2c(cc1Nc1nc(Nc3ccccc3S(=O)(=O)C(C)(C)C)c3sccc3n1)N(C(=O)CN(C)C)CC2 [IO-1]

Second part, the molecule before the results:

Row | SMILES | inhibition at 3.3 µM [%]
5 | COc1cc(N2CCC(N(C)C)CC2)ccc1Nc1nc(OCc2ccccc2S(=O)(=O)C(C)C)c2sccc2n1 [IT-5] | 101
6 | CC(C)P(=O)(c1ccccc1Nc1nc(Nc2ccc(N3CCN(C)CC3)cc2)nc2ccsc12)C(C)C [IR-6] | 98.3
7 | COc1cc2c(cc1Nc1nc(Nc3ccccc3C(=O)N(C)C)c3sccc3n1)N(C(=O)CN(C)C)CC2 [IQ-1] | 96.9
8 | COc1cc(N2CCC(N(C)C)CC2)ccc1Nc1nc(Nc2ccccc2C(=O)NC(C)C)c2sccc2n1 [IP-3] | 99.1
9 | COc1cc(N2CCC(N(C)C)CC2)ccc1Nc1nc(Nc2ccccc2P(=O)(C(C)C)C(C)C)c2sccc2n1 [IR-5] | 98.3
10 | COc1cc(N2CCC(N3CCCC3)CC2)ccc1Nc1nc(Nc2ccccc2P(=O)(C(C)C)C(C)C)c2sccc2n1 [IR-2] | 96.3
11 | CCP(=O)(CC)c1ccccc1Nc1nc(Nc2ccc(N3CCC(N4CCN(C)CC4)CC3)cc2OC)nc2ccsc12 [IS-3] | 101
12 | CCP(=O)(CC)c1ccccc1Nc1nc(Nc2cc3c(cc2OC)CCN3C(=O)CN(C)C)nc2ccsc12 [IS-1] | 98.7
13 | CCP(=O)(CC)c1ccccc1Nc1nc(Nc2ccc(N3CCN(C)CC3)cc2OC)nc2ccsc12 [IS-4] | 103
14 | COc1cc(N2CCC(N3CCN(C)CC3)CC2)ccc1Nc1nc(Nc2ccccc2P(=O)(C(C)C)C(C)C)c2sccc2n1 [IR-4] | 98.4
15 | COc1cc(N2CCC(N3CCN(C)CC3)CC2)ccc1Nc1nc(Nc2ccccc2C(=O)NC(C)C)c2sccc2n1 [IP-1] | 97.4
16 | COc1cc(N2CCC(N3CCN(C)CC3)CC2)ccc1Nc1nc(OCc2ccccc2S(=O)(=O)C(C)C)c2sccc2n1 [IT-3] | 87.8

Target: T2, NPM-ALK-BaF3 (Homo sapiens, UniProt Q9UM73)
T2 construct: NPM (nuclear phosphoprotein / nucleophosmin, NPM1, P06748) fusion partner; expressed in transfected cells; host or cells: BaF3; the other entry of the earlier key: NPM1 (P06748, Nucleophosmin)
Assay: Growth inhibition of BaF3 cells stably transfected with kinase NPM-ALK (MTS)
Assay type: cell-based
Details: compound concentration 3.3 μM, read-out: cell growth inhibition rate, NPM-ALK
Description: as §1, §2

T2 sequence (Q9UM73 with tags, fused parts or gaps): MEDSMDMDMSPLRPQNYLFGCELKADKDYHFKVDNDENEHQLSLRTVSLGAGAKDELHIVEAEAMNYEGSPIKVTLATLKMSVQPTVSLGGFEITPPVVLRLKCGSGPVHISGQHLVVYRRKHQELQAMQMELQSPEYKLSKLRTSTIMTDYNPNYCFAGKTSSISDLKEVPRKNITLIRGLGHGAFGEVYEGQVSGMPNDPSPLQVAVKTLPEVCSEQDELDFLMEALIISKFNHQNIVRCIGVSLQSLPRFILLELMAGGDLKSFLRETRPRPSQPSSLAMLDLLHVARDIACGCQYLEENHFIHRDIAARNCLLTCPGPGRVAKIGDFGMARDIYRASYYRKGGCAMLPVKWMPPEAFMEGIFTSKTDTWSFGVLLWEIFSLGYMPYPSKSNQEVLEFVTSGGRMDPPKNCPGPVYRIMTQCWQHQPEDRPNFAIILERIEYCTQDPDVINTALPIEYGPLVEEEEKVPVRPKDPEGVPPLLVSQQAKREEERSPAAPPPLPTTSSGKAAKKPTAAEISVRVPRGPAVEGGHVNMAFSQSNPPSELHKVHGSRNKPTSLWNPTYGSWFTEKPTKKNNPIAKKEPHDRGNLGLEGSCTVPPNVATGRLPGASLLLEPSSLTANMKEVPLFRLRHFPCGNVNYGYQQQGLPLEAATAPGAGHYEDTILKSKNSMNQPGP

Row | inhibition at 3.3 µM [%] | SMILES
17 | 55.9 | CC(C)S(=O)(=O)c1ccccc1Nc1nc(Nc2ccc(N3CCC(O)CC3)cn2)nc2ccsc12 [IB-12]
18 | 92.8 | COc1cc(N2CCC(N3CCCC3)CC2)ccc1Nc1nc(Nc2ccccc2S(=O)(=O)C(C)C)c2sccc2n1 [IB-7]
19 | 90.9 | COc1cc(C2CCN(C)CC2)c(C)cc1Nc1nc(Nc2ccccc2S(C)(=O)=O)c2sccc2n1 [IA-5]
20 | 83.7 | COc1cc(N2CCN(C)CC2)ccc1Nc1nc(Nc2ccccc2S(=O)(=O)C(C)C)c2sccc2n1 [IB-8]
21 | 94.2 | CC(C)S(=O)(=O)c1ccccc1Nc1nc(Nc2ccc(N3CCN(C)CC3)cc2)nc2ccsc12 [IB-3]
22 | 94.2 | COc1cc2c(cc1Nc1nc(NCc3ccccc3S(=O)(=O)C(C)C)c3sccc3n1)N(C(=O)CN(C)C)CC2 [IM-1]
23 | 87.3 | COc1cc(C(=O)N2CCC(N3CCN(C)CC3)CC2)ccc1Nc1nc(Nc2ccccc2S(=O)(=O)C(C)C)c2sccc2n1 [IB-22]
24 | 84.9 | COc1cc(N2CCC(O)CC2)ccc1Nc1nc(Nc2ccccc2S(=O)(=O)C(C)C)c2sccc2n1 [IB-19]
25 | 88.5 | Cc1cc(Nc2nc(Nc3ccccc3S(=O)(=O)C(C)C)c3sccc3n2)c(OC(C)C)cc1C1CCN(C)CC1 [IB-9]
26 | 96.5 | CCOc1cc(N2CCN(C)CC2)ccc1Nc1nc(Nc2ccccc2S(=O)(=O)C(C)C)c2sccc2n1 [IB-28]
27 | 96 | CC(C)S(=O)(=O)c1ccccc1Nc1nc(Nc2ccc(N3CCC(O)CC3)cc2)nc2ccsc12 [IB-4]
28 | 88.9 | COc1cc(C2CCN(C)CC2)c(C)cc1Nc1nc(Nc2ccccc2S(=O)(=O)C(C)C)c2sccc2n1 [IB-5]
29 | 90.3 | CCOc1cc(C(=O)N2CCC(N3CCN(C)CC3)CC2)ccc1Nc1nc(Nc2ccccc2S(=O)(=O)C(C)C)c2sccc2n1 [IB-13]
30 | 97.3 | CC(C)S(=O)(=O)c1ccccc1Nc1nc(Nc2ccc(C(=O)N3CCN(C)CC3)cc2)nc2ccsc12 [IB-26]
31 | 66.1 | CC(C)Oc1cc(N2CCC(O)CC2)ccc1Nc1nc(Nc2ccccc2S(=O)(=O)C(C)C)c2sccc2n1 [IB-18]
32 | 86 | CCOc1cc(N2CCC(O)CC2)ccc1Nc1nc(Nc2ccccc2S(=O)(=O)C(C)C)c2sccc2n1 [IB-17]
33 | 97.4 | CC(C)S(=O)(=O)c1ccccc1Nc1nc(Nc2ccc(N3CCN(C)CC3)cn2)nc2ccsc12 [IB-24]
34 | 96.7 | CC(C)S(=O)(=O)c1ccccc1Nc1nc(Nc2ccc(N3CCC(O)CC3)nc2)nc2ccsc12 [IB-23]

Continued, molecule first:

Row | SMILES | inhibition at 3.3 µM [%]
35 | CS(=O)(=O)Nc1ccccc1Nc1nc(Nc2ccc(N3CCC(O)CC3)cc2)nc2ccsc12 [IH-4] | 26.7
36 | COc1cc2c(cc1Nc1nc(Nc3cccc(NS(C)(=O)=O)c3)c3sccc3n1)N(C(=O)CN(C)C)CC2 [IG-1] | 22.2
37 | COc1cc(N2CCN(C)CC2)ccc1Nc1nc(Nc2ccccc2NS(C)(=O)=O)c2sccc2n1 [IH-3] | 79.2
38 | COc1cc(N2CCC(N3CCN(C)CC3)CC2)ccc1Nc1nc(Nc2ccccc2NS(C)(=O)=O)c2sccc2n1 [IH-2] | 85.1
39 | CS(=O)(=O)Nc1cccc(Nc2nc(Nc3ccc(S(N)(=O)=O)cc3)nc3ccsc23)c1 [IG-6] | 3.07
40 | CCOc1cc(N2CCN(C)CC2)ccc1Nc1nc(Nc2ccccc2C(=O)NC)c2sccc2n1 [II-4] | 46.6
41 | COc1cc2c(cc1Nc1nc(Nc3ccccc3NS(C)(=O)=O)c3sccc3n1)N(C(=O)CN(C)C)CC2 [IH-1] | 12.7
42 | CC(C)S(=O)(=O)c1ccccc1CNc1nc(Nc2ccc(N3CCN(C)CC3)cc2)nc2ccsc12 [IM-3] | 52.5
43 | COc1cc(N2CCC(N3CCN(C)CC3)CC2)ccc1Nc1nc(NCc2ccccc2S(=O)(=O)C(C)C)c2sccc2n1 [IM-2] | 20.6
44 | COC(=O)c1cccc(Nc2nc(Nc3ccc(N4CCN(C)CC4)cc3OC)nc3ccsc23)c1 [ID-2] | 44.7
45 | CS(=O)(=O)Nc1cccc(Nc2nc(Nc3ccc(N4CCC(O)CC4)cc3)nc3ccsc23)c1 [IG-3] | 21.6
46 | CC(C)S(=O)(=O)c1ccccc1CNc1nc(Nc2ccc(N3CCC(O)CC3)cc2)nc2ccsc12 [IM-4] | 53.1
47 | CC(C)S(=O)(=O)c1ccccc1Nc1nc(Nc2ccc(N3CCOCC3)cc2)nc2ccsc12 [IB-15] | 83.3
48 | CNC(=O)c1ccccc1Nc1nc(Nc2ccc(N3CCC(O)CC3)cc2)nc2ccsc12 [II-5] | 31.6
49 | CC(C)S(=O)(=O)c1ccccc1Nc1nc(Nc2ccc(N3CCOCC3)nc2)nc2ccsc12 [IB-16] | 77.5
50 | CC(C)S(=O)(=O)c1nn(C)cc1Nc1nc(Nc2ccc(N3CCC(O)CC3)cc2)nc2ccsc12 [IC-4] | 53.2
51 | CN1CCN(c2ccc(Nc3nc(NCc4ccccc4S(C)(=O)=O)c4sccc4n3)cc2)CC1 [IL-3] | 56.8
52 | CC(C)S(=O)(=O)c1ccccc1Nc1nc(Nc2ccc(C(=O)N3CCC(N4CCN(C)CC4)CC3)cc2)nc2ccsc12 [IB-29] | 97.5

Row | SMILES | inhibition at 3.3 µM [%]
53 | CC(C)S(=O)(=O)c1ccccc1Nc1nc(Nc2ccc(S(=O)(=O)N3CCN(C)CC3)cc2)nc2ccsc12 [IB-21] | 72.1
54 | COc1cc2c(cc1Nc1nc(Nc3cn(C)nc3S(=O)(=O)C(C)C)c3sccc3n1)N(C(=O)CN(C)C)CC2 [IC-1] | 82.4
55 | COc1cc(N2CCC(N3CCN(C)CC3)CC2)ccc1Nc1nc(Nc2cccc(NS(C)(=O)=O)c2)c2sccc2n1 [IG-2] | 17.4
56 | CNC(=O)c1ccccc1Nc1nc(Nc2ccc(N3CCN(C)CC3)cc2)nc2ccsc12 [II-2] | 28.1
57 | COC(=O)c1cccc(Nc2nc(Nc3cc4c(cc3OC)CCN4C(=O)CN(C)C)nc3ccsc23)c1 [ID-1] | 73.4
58 | CS(=O)(=O)Nc1ccccc1Nc1nc(Nc2ccc(S(N)(=O)=O)cc2)nc2ccsc12 [IH-7] | 15.1
59 | CS(=O)(=O)c1ccccc1CNc1nc(Nc2ccc(N3CCC(O)CC3)cc2)nc2ccsc12 [IL-4] | 45.8
60 | COc1cc(N2CCC(N3CCN(C)CC3)CC2)ccc1Nc1nc(NCc2ccccc2S(C)(=O)=O)c2sccc2n1 [IL-2] | 54.8
61 | CC(C)S(=O)(=O)c1ccccc1Nc1nc(Nc2ccc(OCc3ccccn3)cc2)nc2ccsc12 [IB-20] | 66
62 | CC(C)S(=O)(=O)c1nn(C)cc1Nc1nc(Nc2ccc(N3CCN(C)CC3)cc2)nc2ccsc12 [IC-3] | 46.5
63 | CNC(=O)c1ccccc1Nc1nc(Nc2ccc(N3CCN(C)CC3)cc2OC)nc2ccsc12 [II-3] | 84.1
64 | COc1cc(N2CCC(N3CCN(C)CC3)CC2)ccc1Nc1nc(Nc2cn(C)nc2S(=O)(=O)C(C)C)c2sccc2n1 [IC-2] | 55
65 | CC(C)S(=O)(=O)c1ccccc1Nc1nc(Nc2ccc(N3CCN(C(=O)OC(C)(C)C)CC3)cc2)nc2ccsc12 [IB-25] | 61.4
66 | CC(C)S(=O)(=O)c1ccccc1Nc1nc(Nc2ccc(S(=O)(=O)N3CCC(O)CC3)cc2)nc2ccsc12 [IB-11] | 60.9
67 | COc1cc2c(cc1Nc1nc(NCc3ccccc3S(C)(=O)=O)c3sccc3n1)N(C(=O)CN(C)C)CC2 [IL-1] | 73.7
68 | CNC(=O)c1ccccc1Nc1nc(Nc2ccc(N3CCC(N4CCN(C)CC4)CC3)cc2OC)nc2ccsc12 [II-1] | 46.3
69 | CC(C)S(=O)(=O)c1ccccc1Nc1nc(Nc2ccc(N3CCC(N4CCN(C)CC4)CC3)cc2)nc2ccsc12 [IB-6] | 93.2
